Data published in patent EP1268431B1 (Wyeth, priority 2000, dated 2001).
Several values for one entry are separate records, joined by “and”; a condition that tells them apart may be missing. Identical values can stand only once.

Experiments:
[1] = molecular target: T1, Raf-1 (c-Raf) (Homo sapiens, UniProt P04049); experiment: Raf1 Kinase Cascade Assay; format: biochemical
T1 construct: Sf9 insect cell lysate containing full length 6his-tagged recombinant human c-Raf; 6his; host or cells: Sf9 insect cells (c-Raf, used as lysate); E. coli (GST-MEK1, GST-MAPK)
Description: (Specific Activity: -200U/ml). Human Non-active Mek-1-GST and human GST-MAP kinase (recombinant proteins produced in E. coli).
• Assay Dilution Buffer (ADB); 20mM MOPS, pH 7.2, 25mM β-glycerol phosphate, 5mM EGTA, 1mM sodium orthovanadate, 1mM dithiothreitol. • Magnesium/ATP Cocktail: 500µM cold ATP and 75 mM magnesium chloride in ADB. • Active Kinase: Human Active c-Raf: Use at 0.4U per assay point. • Non-active GST-MEK1: Use at 0.1 µg per assay point. • Non-active GST-p42 MAP Kinase: Use at 1.0 µg per assay point.
• TBST - Tris (50 mM, pH 7.5), NaCl (150 mM), Tween-20 (0.05 %) • Superblock (Pierce) • Anti-GST Ab (Pharmacia) • Anti-Phospho MAPK (Sigma) • Anti-Mouse Ab / Europium conjugate (Wallac)
IC50 determinations - done on compounds from single point assays with >80% inhibition. Typically Raf-1 assay is run at compound concentrations from 10 µM to 30 nM in half log dilutions. (% inhibition is determined for each compound concentration).

[2] = test system: Human adenocarcinoma cell line LoVo; experiment: Cell Based Screen for Inhibitors of Raf Kinase, LoVo cells; details: four days, SRB
Description: (§1) • Cell Lines: Human adenocarcinoma cell line LoVo which is known to be growth inhibited by low nM concentrations of a reference standard inhibitor of Ras and human adenocarcinoma cell line CaCo-2, which is known to be growth resistant to the same reference compound. • Cell Media: RPMI 1640 with 10% Fetal Bovine Serum supplemented with L-glutamine and Pennicilin/Streptomycin. • Compounds: Supplied usually as a 10 mM stock in 100% DMSO. • Normal Saline: 150 mM NaCl • Trichloroacetic Acid (TCA): 50% (w/v) in water • Sulforhodamine B (SRB): 0.4% (w/v) in 1% Acetic Acid • Tris Base: 10 mM in water
(§2) Cells are plated at 2000 cells per well for cell line LoVo and 1500 cells for cell line CaCo-2 in 96 well plates. Cells are plated in media (200 µl) and allowed to adhere overnight at 37° C. At 24 hours post plating, compounds are added directly at a volume of 0.5 µl. For the qualitative screen (compounds screened at 25 µM) compound is added directly to cells. For the quantitative screen, compound is first diluted in DMSO to generate concentrations of compound or reference standard of: 1, 5, 10 and 25 µM. It is advisable to make the dilutions in an identical 96 well plate so that compounds may be added using a multichannel micropipettor set at 0.5 µl. The cells are then incubated for four days after which the media is removed using a 12 well manifold by first tipping the plate forward at a 45 degree angle and then inserting the manifold in an upright orientation to prevent the tips of the manifold from disturbing cells at the bottom of the plate. 200 µl of normal saline is then added to each well using an 8 well multichannel pipettor, followed by the careful addition of 50 µl of 50% TCA. The plates are then incubated for 2 hours at 4 ° C, after which the supernatant is removed using the same technique as above and the plated washed twice with 200 µl water. The plates are then air dried and 50 µl of SRB stock solution is carefully added so that the entire bottom of each well is covered. This again may be used using an 8 well multichannel pipettor. The SRB is incubated with fixed cells for 15 minutes at room temperature after which the SRB is removed with the manifold as described above and the plates washed twice with 350 µl of 1% acetic acid per well each time.The plates are then air dried after which the bound SRB is released from protein by the addition of 200 µl of Tris base. Resolubilizing the SRB is aided by placing the plates on a rotator for 15-30 minutes. The absorbance of each well is determined at 550 or 562 nm using a microtiter plate reader.
(§3) Each compound or dilution thereof is performed in triplicate. Outliers are identified by visual inspection of the data. Each plate should have a "0" control (vehicle only).
(§4) Quantitative Assay: A standard curve is constructed by plotting the concentration of compound against the average absorbance calculated at that concentration. A curve is plotted and the concentration at which the curve passes through the 50% the absorbance mark seen in the "0" control well is the IC50 calculated for that compound. […]

[3] = test system: human adenocarcinoma cell line CaCo-2; experiment: Cell Based Screen for Inhibitors of Raf Kinase, CaCo-2 cells; details: CaCo-2, four days, SRB
Description: as §1, §2, §3, §4

Row | Molecule | IC50 [1] | IC50 [2] [µM] | IC50 [3] [µM] | IC50 ([2]; Homo sapiens, 96 h) [µM] | IC50 ([3]; Homo sapiens, Caco-2, 96 h) [µM]
1 | Cn1ccnc1Sc1ccc(Nc2c(C#N)cnc3cc(-c4ccc(CN5CCNCC5)cc4)ccc23)cc1Cl [Example 97, 4-({3-Chloro-4-[(1-methyl-1H-imidazol-2-yl)sulfanyl]phenyl}amino)-7-[4-(1-piperazinylmethyl)phenyl]-3-quinolinecarbonitrile] | 0.016 µM | 0.033 | > 1 | – | –
2 | 4-{3-chloro-4-[(1-methyl-1H-imidazol-2-yl)sulfanyl]anilino}-7-{5-[(4-ethyl-1-piperazinyl)methyl]-2-furyl}-3-quinolinecarbonitrile [Example 156] | 0.009 µM and 0.012 µM | 0.0056 | 1 | – | –
3 | Cn1ccnc1Sc1ccc(Nc2c(C#N)cnc3cc(-c4csc(CN5CCOCC5)c4)ccc23)cc1Cl [Example 33, 4-{3-Chloro-4-[(1-methyl-1H-imidazol-2-yl)sulfanyl]anilino}-7-[5-(4-morpholinylmethyl)-3-thienyl]-3-quinolinecarbonitrite] | 0.006 µM | 0.006 | – | – | –
4 | Cn1ccnc1Sc1ccc(Nc2c(C#N)cnc3cc(-c4ccc(CN5CCCCC5)o4)ccc23)cc1Cl [Example 155, 4-{3-chloro-4-[(1-methyl-1H-imidazol-2-yl)sulfanyl]anilino}-7-[5-(1-piperidinylmethyl)-2-furyl]-3-quinolinecarbonitrile] | 0.02 µM | – | – | – | –
5 | 4-({3-chloro-4-[(1-methyl-1H-imidazol-2-yl)sulfanyl]phenyl}amino) -7-[5-(1-pyridinyl]-3-quinolinecarbonitrile [Example 180] | 0.0037 µM | 0.0056 | 0.93 | – | –
6 | 4-({3-chloro-4-[(1-methyl-1H-imidazol-2-yl)sulfanyl]phenyl}amino)-7-[6-(1-piperidinyl)-3-pyridinyl]-3-quinolinecarbonitrile [Example 211] | 0.006 µM | 0.0053 | > 1 | – | –
7 | 4-{3-chloro-4-[(1-methyl-1H-imidazol-2-yl)sulfanyl]anilino}-7-[4-(1-piperidinylmethyl)phenyl]-3-quinolinecarbonitrile [Example 136] | 0.0025 µM and 0.0018 µM | 0.011 | > 1 | – | –
8 | Cn1ccnc1Sc1ccc(Nc2c(C#N)cnc3cc(-c4ccc(CN5CCOCC5)cc4)ccc23)cc1Cl [Example 138] | 0.0056 µM | 0.0062 | 0.81 | – | –
9 | Cn1ccnc1Sc1ccc(Nc2c(C#N)cnc3cc(-c4cnc(N5CCOCC5)nc4)ccc23)cc1Cl [Example 191, 4-{3-chloro-4-[(1-methyl-1H-imidazol-2-yl)sufanyl]anilino}-7-[2-(4-morpholinyl)-5-pyrimidinyl]-3-quinolinecarbonitrile] | 0.001 µM | 0.03 | > 10 | – | –
10 | Cn1ccnc1Sc1ccc(Nc2c(C#N)cnc3cc(-c4ccc(CN5CCOCC5)o4)ccc23)cc1Cl [Example 154, 4-{3-chloro-4-[(1-methyl-1H-imidazol-2-yl)sulfanyl]anilino}-7-[5-(4-morpholinylmethyl)-2-furyl]-3-quinolinecarbonitrile] | – | – | – | 0.0068 | > 1
11 | CCN1CCN(Cc2ccc(-c3ccc4c(Nc5ccc(Sc6nccn6C)c(Cl)c5)c(C#N)cnc4c3)cn2)CC1 [Example 220, 4-({3-chloro-4-[(1-methyl-1H-imidazol-2-yl)sulfanyl]phenyl}amino)-7-{6-[(4-ethyl-1-piperazinyl)methyl]-3-pyridinyl}-3-quinolinecarbonitrile] | – | – | – | 0.0077 | > 1
12 | CN1CCN(Cc2ccc(-c3ccc4c(Nc5ccc(Sc6nccn6C)c(Cl)c5)c(C#N)cnc4c3)cc2)CC1 [Example 135, 4-{3-chloro-4-[(1-methyl-1H-imidazol-2-yl)sulfanyl]anilino}-7-{4-[(4-methyl-1-piperazinyl)methyl]phenyl}-3-quinolinecarbonitrile] | – | – | – | 0.0068 | > 1
13 | COc1cc2c(Nc3ccc(Sc4nccn4C)c(Cl)c3)c(C#N)cnc2cc1-c1csc(CN2CCN(C)CC2)c1 [Example 126, 4-{3-Chloro-4-[(1-methyl-1H-imidazol-2-yl)sulfanyl]anilino}-6-methoxy-7-{5-[(4-methyl-1-piperazinyl)methyl]-3-thienyl}-3-quinolinecarbonitrile] | – | – | – | 0.075 | > 1
14 | COc1cc2c(Nc3ccc(Sc4nccn4C)c(Cl)c3)c(C#N)cnc2cc1-c1ccc(CN2CCOCC2)cc1 [Example 123, 4-{3-Chloro-4-[(1-methyl-1H-imidazol-2-yl)sulfanyl]anilino}-6-methoxy-7-[4-(4-morpholinylmethyl)phenyl]-3-quinolinecarbonitrile] | – | – | – | 0.04 | 1.5
15 | N#Cc1cnc2cc(-c3csc(CN4CCCCC4)c3)ccc2c1Nc1ccc(Sc2ccccc2)c(Cl)c1 [Example 462, 4-{[3-chloro-4-(phenylsulfanyl)phenyl]amino}-7-[5-(1-piperidinylmethyl)-3-thienyl]-3-quinolinecarbonitrile] | 0.05 µM | – | – | – | –
16 | Cn1ccnc1Sc1ccc(Nc2c(C#N)cnc3cc(-c4ccc(CN5CCOCC5)cn4)ccc23)cc1Cl [Example 187, 4-{3-chloro-4-[(1-methyl-1H-imidazol-2-yl)sulfanyl]anilino}-7-[5-(4-morpholinylmethyl)-2-pyridinyl]-3-quinolinecarbonitrile] | – | 0.009 | 5.5 | – | > 10
17 | Cn1ccnc1Sc1ccc(Nc2c(C#N)cnc3cc(-c4ccc(CN5CCN(CCO)CC5)cn4)ccc23)cc1Cl [Example 217, 4-({3-chloro-4-[(1-methyl-1H-imidazol-2-yl)sulfanyl]phenyl}amino)-7-(5-{[4-(2-hydroxyethyl)-1-piperazinyl]methyl}-2-pyridinyl)-3-quinolinecarbonitrile] | – | – | – | 0.036 | > 1
18 | CN1CCN(Cc2cccc(-c3ccc4c(Nc5ccc(Sc6nccn6C)c(Cl)c5)c(C#N)cnc4c3)n2)CC1 [Example 202, 4-{3-chloro-4-[(1-methyl-1H-imidazol-2-yl)sulfanyl]anilino}-7-{6-[(4-methyl-1-piperazinyl)methyl]-2-pyridinyl}-3-quinolinecarbonitrile] | – | – | – | 0.0065 | > 1
19 | Cn1ccnc1Sc1ccc(Nc2c(C#N)cnc3cc(-c4ccc(N5CCC(N6CCCC6)CC5)nc4)ccc23)cc1Cl [Example 210, 4-({3-chloro-4-[(1-methyl-1H-imidazol-2-yl)sulfanyl]phenyl}amino)-7-{6-[4-(1-pyrrolidinyl)-1-piperidinyl]-3-pyridinyl}-3-quinolinecarbonitrile] | – | – | – | 0.0032 | 0.59
